Where two headings read alike, the source gives them in different places.
Tests used:
[1] = target: T1, PARP-1 (Homo sapiens, UniProt P09874); assay: PARP-1 inhibition assay (PARP-1 Chemiluminescent Assay Kit, BPS Bioscience); format: biochemical; conditions: for inhibition at 0.01 µM: 10 nM compound
T1 construct: purchased BPS Bioscience 80569
Protocol: (§1) The PARP-1 and PARP-2 inhibition assays were performed in outsourcing, by a CRO company, Shanghai Medicilon Inc. (Shanghai, China). […] Briefly, PARP-1 or PARP-2 biotinylated substrate was incubated with compounds or solvent control at varying concentrations and an assay buffer containing the PARP-1 or PARP-2 enzyme.

[2] = target: T2, PARP-2 (Homo sapiens, UniProt Q9UGN5); assay: PARP-2 inhibition assay (PARP-2 Chemiluminescent Assay Kit, BPS Bioscience); format: biochemical; conditions: for inhibition at 0.01 µM: 10 nM compound
T2 construct: purchased BPS Bioscience 80552
Protocol: as §1

[3] = tested on: MDA-MB-436 (a BRCA-1-mutated breast cancer cell line); assay: Cell proliferation assay, three-day, CellTiter-Glo, MDA-MB-436; format: cell-based; conditions: for inhibition at 0.00508 µM / inhibition at 0.0152 µM / inhibition at 0.0457 µM / inhibition at 0.41 µM / inhibition at 1.23 µM / inhibition at 3.7 µM / inhibition at 11.11 µM / inhibition at 33.33 µM / inhibition at 100 µM / IC50: Homo sapiens; for inhibition at 0.00508 µM: MDA-MB-436, MDA-MB-436, Conc. 0.00508 uM; for inhibition at 0.0152 µM: MDA-MB-436, MDA-MB-436, Conc. 0.0152 uM; for inhibition at 0.0457 µM: MDA-MB-436, MDA-MB-436, Conc. 0.0457 uM; for inhibition at 0.41 µM: MDA-MB-436, MDA-MB-436, Conc. 0.41 uM; for inhibition at 1.23 µM: MDA-MB-436, MDA-MB-436, Conc. 1.23 uM; for inhibition at 3.7 µM: MDA-MB-436, MDA-MB-436, Conc. 3.70 uM; for inhibition at 11.11 µM: MDA-MB-436, MDA-MB-436, Conc. 11.11 uM; for inhibition at 33.33 µM: MDA-MB-436, MDA-MB-436, Conc. 33.33 uM; for inhibition at 100 µM: MDA-MB-436, MDA-MB-436, Conc. 100.00 uM
Outline: (§2)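 Cells seeded overnight in 384-well plates, then exposed to compounds (DMSO stock diluted in medium) for 72 h at 37 °C, 5% CO2. Viability read as CellTiter-Glo luminescence after 60 min at room temperature.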

[4] = tested on: CAPAN-1 (a BRCA-2-mutated pancreatic cancer cell line); assay: Cell proliferation assay, three-day, CellTiter-Glo, CAPAN-1; format: cell-based; conditions: for IC50 / inhibition at 0.00508 µM / inhibition at 0.0152 µM / inhibition at 0.0457 µM / inhibition at […] / inhibition at 0.41 µM / inhibition at 1.23 µM / inhibition at 3.7 µM / inhibition at 11.11 µM / inhibition at 33.33 µM / inhibition at 100 µM: Homo sapiens; for inhibition at 0.00508 µM: CAPAN-1, 0.00508 uM; for inhibition at 0.0152 µM: CAPAN-1, 0.0152 uM; for inhibition at 0.0457 µM: CAPAN-1, 0.0457 uM; for inhibition at […]: CAPAN-1, 0.14 uM; for inhibition at 0.41 µM: CAPAN-1, 0.41 uM; for inhibition at 1.23 µM: CAPAN-1, 1.23 uM; for inhibition at 3.7 µM: CAPAN-1, 3.70 uM; for inhibition at 11.11 µM: CAPAN-1, 11.11 uM; for inhibition at 33.33 µM: CAPAN-1, 33.33 uM; for inhibition at 100 µM: CAPAN-1, 100.00 uM
Outline: as §2

T1 sequence (P09874 whole entry): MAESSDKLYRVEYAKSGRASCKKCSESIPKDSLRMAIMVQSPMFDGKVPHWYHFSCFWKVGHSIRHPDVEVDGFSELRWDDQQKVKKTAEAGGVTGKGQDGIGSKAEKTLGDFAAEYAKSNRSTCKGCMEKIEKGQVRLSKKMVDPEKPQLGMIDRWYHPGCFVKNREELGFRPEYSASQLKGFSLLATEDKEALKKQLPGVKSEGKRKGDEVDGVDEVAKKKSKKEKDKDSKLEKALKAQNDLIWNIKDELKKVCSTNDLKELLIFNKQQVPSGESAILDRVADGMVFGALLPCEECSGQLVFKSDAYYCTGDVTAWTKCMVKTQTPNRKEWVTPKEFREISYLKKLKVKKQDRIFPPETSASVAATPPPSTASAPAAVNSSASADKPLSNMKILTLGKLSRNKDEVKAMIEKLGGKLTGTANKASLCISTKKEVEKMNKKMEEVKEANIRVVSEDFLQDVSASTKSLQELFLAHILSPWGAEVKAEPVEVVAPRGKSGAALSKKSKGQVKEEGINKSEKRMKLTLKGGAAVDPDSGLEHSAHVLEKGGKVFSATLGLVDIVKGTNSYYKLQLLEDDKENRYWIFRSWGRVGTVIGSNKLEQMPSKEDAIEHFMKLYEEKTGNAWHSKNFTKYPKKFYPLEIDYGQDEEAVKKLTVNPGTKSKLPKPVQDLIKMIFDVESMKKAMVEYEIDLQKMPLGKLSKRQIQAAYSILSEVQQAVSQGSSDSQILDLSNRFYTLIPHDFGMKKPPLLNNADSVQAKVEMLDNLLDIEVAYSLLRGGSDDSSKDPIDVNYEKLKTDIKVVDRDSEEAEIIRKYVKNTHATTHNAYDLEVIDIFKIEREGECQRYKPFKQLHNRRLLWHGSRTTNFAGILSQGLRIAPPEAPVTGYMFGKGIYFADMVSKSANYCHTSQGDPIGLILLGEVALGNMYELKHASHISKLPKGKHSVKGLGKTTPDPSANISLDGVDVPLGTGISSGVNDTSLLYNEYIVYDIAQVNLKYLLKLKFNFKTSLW
T2 sequence (Q9UGN5 whole entry): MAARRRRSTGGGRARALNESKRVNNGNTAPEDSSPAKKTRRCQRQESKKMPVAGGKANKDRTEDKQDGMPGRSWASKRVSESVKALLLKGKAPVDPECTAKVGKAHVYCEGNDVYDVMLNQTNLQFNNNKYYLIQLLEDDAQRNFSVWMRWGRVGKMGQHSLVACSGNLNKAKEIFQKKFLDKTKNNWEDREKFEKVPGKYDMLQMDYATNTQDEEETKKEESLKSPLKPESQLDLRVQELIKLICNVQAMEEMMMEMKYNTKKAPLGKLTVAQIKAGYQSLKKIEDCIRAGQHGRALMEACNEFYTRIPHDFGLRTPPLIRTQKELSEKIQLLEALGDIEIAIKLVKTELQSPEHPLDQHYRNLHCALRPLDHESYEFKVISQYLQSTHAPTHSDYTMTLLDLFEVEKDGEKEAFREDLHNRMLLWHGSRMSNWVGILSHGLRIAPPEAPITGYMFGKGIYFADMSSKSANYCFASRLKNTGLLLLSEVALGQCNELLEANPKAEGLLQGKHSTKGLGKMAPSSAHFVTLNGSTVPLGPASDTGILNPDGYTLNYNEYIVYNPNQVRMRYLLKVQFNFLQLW

COc1ccc(C(=O)CCN2CCC(c3nc4c(C(N)=O)cccc4[nH]3)C2)cc1 (centres unmarked) [Compound 5ci, 2-(1-(3-(4-Methoxyphenyl)-3-oxopropyl)pyrrolidin-3-yl)-1H-benzo[d]imidazole-4-carboxamide]
inhibition at 0.01 µM ([1]; supplement sheet, read-out: 10 nM inhibition% PAPR-1): 59.2%
inhibition at 0.01 µM ([1]; read-out: PARP-1 Inhibition % (10 nM)): 59.2%
IC50 ([1]; read-out: PARP-1 IC50): 0.0059 µM
IC50 ([1]; supplement sheet, read-out: IC50 PAPR-1): 0.00586 µM
inhibition at 0.01 µM ([2]; supplement sheet, read-out: 10 nM inhibition% PAPR-2): 62.5%
inhibition at 0.01 µM ([2]; read-out: PARP-2 Inhibition % (10 nM)): 62.5%
IC50 ([2]; read-out: PARP-2 IC50): 0.0045 µM
IC50 ([2]; supplement sheet, read-out: IC50 PAPR-2): 0.00452 µM
inhibition at 0.00508 µM ([3]; replicate 1, read-out: Inh % 1): -3.7%
inhibition at 0.00508 µM ([3]; replicate 2, read-out: Inh % 2): -7.9%
inhibition at 0.0152 µM ([3]; replicate 1, read-out: Inh % 1): -0.252%
inhibition at 0.0152 µM ([3]; replicate 2, read-out: Inh % 2): -7.1%
inhibition at 0.0457 µM ([3]; replicate 1, read-out: Inh % 1): -8.5%
inhibition at 0.0457 µM ([3]; replicate 2, read-out: Inh % 2): -13.5%
inhibition at 0.41 µM ([3]; replicate 1, read-out: Inh % 1): -19.2%
inhibition at 0.41 µM ([3]; replicate 2, read-out: Inh % 2): -15.9%
inhibition at 1.23 µM ([3]; replicate 1, read-out: Inh % 1): -9.5%
inhibition at 1.23 µM ([3]; replicate 2, read-out: Inh % 2): -17.4%
inhibition at 3.7 µM ([3]; replicate 1, read-out: Inh % 1): -10.7%
inhibition at 3.7 µM ([3]; replicate 2, read-out: Inh % 2): -17.4%
inhibition at 11.11 µM ([3]; replicate 1, read-out: Inh % 1): -13.6%
inhibition at 11.11 µM ([3]; replicate 2, read-out: Inh % 2): -15.6%
inhibition at 33.33 µM ([3]; replicate 1, read-out: Inh % 1): 7.8%
inhibition at 33.33 µM ([3]; replicate 2, read-out: Inh % 2): 1.7%
inhibition at 100 µM ([3]; replicate 1, read-out: Inh % 1): 89.3%
inhibition at 100 µM ([3]; replicate 2, read-out: Inh % 2): 86.7%
IC50 ([3]; MDA-MB-436, 72 h, CellTiter-Glo, read-out: MDA-MB-436 IC50): 38.6 µM
IC50 ([3]; MDA-MB-436, 72 h, supplement Summary sheet, read-out: IC50): 38.6 µM
IC50 ([3]; MDA-MB-436, curve fit list, no unit in the cell, concentration in uM, read-out: IC50): 38.6 µM
LogIC50 ([3]; MDA-MB-436, curve fit on Log (uM) concentrations): ~ 1.587
Bottom ([3]; MDA-MB-436, curve fit parameter (Inh %)): -11.35
Top ([3]; MDA-MB-436, curve fit parameter (Inh %), '= 100.0' is a constrained value): 88
LogIC50 ([4]; CAPAN-1, curve-fit output, Log (uM)): 1.682
IC50 ([4]; CAPAN-1, 72 h, CellTiter-Glo, read-out: CAPAN-1 IC50): 48.1 µM
inhibition at 0.00508 µM ([4]; replicate 1, read-out: Inh % 1): 3.5%
inhibition at 0.00508 µM ([4]; replicate 2, read-out: Inh % 2): -8.1%
inhibition at 0.0152 µM ([4]; replicate 1, read-out: Inh % 1): 3.7%
inhibition at 0.0152 µM ([4]; replicate 2, read-out: Inh % 2): 5.2%
inhibition at 0.0457 µM ([4]; replicate 1, read-out: Inh % 1): 2.3%
inhibition at 0.0457 µM ([4]; replicate 2, read-out: Inh % 2): -3.2%
inhibition at […] ([4]; replicate 1, read-out: Inh % 1): 7.9%
inhibition at […] ([4]; replicate 2, read-out: Inh % 2): 5.4%
inhibition at 0.41 µM ([4]; replicate 1, read-out: Inh % 1): 9.3%
inhibition at 0.41 µM ([4]; replicate 2, read-out: Inh % 2): -5.7%
inhibition at 1.23 µM ([4]; replicate 1, read-out: Inh % 1): -11.8%
inhibition at 1.23 µM ([4]; replicate 2, read-out: Inh % 2): -10.7%
inhibition at 3.7 µM ([4]; replicate 1, read-out: Inh % 1): 0.241%
inhibition at 3.7 µM ([4]; replicate 2, read-out: Inh % 2): -0.2%
inhibition at 11.11 µM ([4]; replicate 1, read-out: Inh % 1): 6%
inhibition at 11.11 µM ([4]; replicate 2, read-out: Inh % 2): -3.5%
inhibition at 33.33 µM ([4]; replicate 1, read-out: Inh % 1): 27.1%
inhibition at 33.33 µM ([4]; replicate 2, read-out: Inh % 2): 18.7%
inhibition at 100 µM ([4]; replicate 1, read-out: Inh % 1): 85.7%
inhibition at 100 µM ([4]; replicate 2, read-out: Inh % 2): 75.3%
IC50 ([4]; CAPAN-1, 72 h, supplement Summary sheet, read-out: IC50): 48.1 µM
IC50 ([4]; CAPAN-1, curve-fit output, concentrations in uM, read-out: IC50): 48.1 µM
